Measured values: paper PMC8578332 (Scientific Reports, 2021)
Where two headings read alike, the source gives them in different places. Where a SMILES comes first, the peptide text is derived from it. Bridges are numbered along the chain shown (N, C = ends).

Molecular target: human α7-containing nAChRs (Homo sapiens, UniProt P36544)
Experiment: cell-based
Type: cell-based

human α7-containing nAChRs, sequence (P36544 23-502 limits assumed): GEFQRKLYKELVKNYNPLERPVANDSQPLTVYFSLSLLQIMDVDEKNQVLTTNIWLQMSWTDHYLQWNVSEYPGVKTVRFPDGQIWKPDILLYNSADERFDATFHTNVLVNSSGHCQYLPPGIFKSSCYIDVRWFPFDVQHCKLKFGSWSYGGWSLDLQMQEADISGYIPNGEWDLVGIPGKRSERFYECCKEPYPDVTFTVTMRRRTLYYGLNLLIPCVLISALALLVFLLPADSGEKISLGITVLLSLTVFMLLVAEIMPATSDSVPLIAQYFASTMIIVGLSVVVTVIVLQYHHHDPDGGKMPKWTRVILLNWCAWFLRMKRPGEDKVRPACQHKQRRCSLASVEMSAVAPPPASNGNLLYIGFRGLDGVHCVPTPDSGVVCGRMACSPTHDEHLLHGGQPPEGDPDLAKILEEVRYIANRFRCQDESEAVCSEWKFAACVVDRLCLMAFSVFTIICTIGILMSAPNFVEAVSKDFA

SMILES | IC50 (SEM) | further results
CC[C@H](C)[C@@H]1NC(=O)[C@H](CC(N)=O)NC(=O)[C@@H]2CCCN2C(=O)[C@H](CC(N)=O)NC(=O)[C@H](CC(N)=O)NC(=O)[C@H](C(C)C)NC(=O)[C@H](CCCNC(=N)N)NC(=O)[C@@H]2CSSC[C@H](NC(=O)CNC(=O)[C@@H](N)CO)C(=O)N[C@@H](CSSC[C@@H](C(N)=O)NC1=O)C(=O)N[C@@H](CO)C(=O)N[C@@H](CCCNC(=N)N)C(=O)N[C@@H](CC(N)=O)C(=O)N1CCC[C@H]1C(=O)N[C@@H](C)C(=O)N2 [gLsIA [∇R6]] (H-SGCCSRNPACRVNNPNIC-NH2; disulfide 3-10, 4-18) | 8 ± 0.52 µM | –
CC(C)[C@H](NC(=O)[C@@H]1CSSC[C@@H]2NC(=O)[C@@H](NC(=O)[C@@H](N)CO)CSSC[C@H](NC(=O)[C@H](C)NC(=O)[C@@H]3CCCN3C(=O)[C@H](CC(N)=O)NC(=O)[C@H](CCCNC(=N)N)NC(=O)[C@H](C)NC2=O)C(=O)N[C@@H](C)C(=O)N[C@@H](Cc2c[nH]cn2)C(=O)N[C@@H](CC(N)=O)C(=O)N[C@@H](Cc2c[nH]cn2)C(=O)N2CCC[C@H]2C(=O)N1)C(N)=O [gAusIA [R10A]] (H-SCCARNPACAHNHPCV-NH2; disulfide 2-9, 3-15) | – | IC50: > 100 µM
CC[C@H](C)[C@@H]1NC(=O)[C@H](CC(N)=O)NC(=O)[C@@H]2CCCN2C(=O)[C@H](CC(N)=O)NC(=O)[C@H](CC(N)=O)NC(=O)[C@H](C(C)C)NC(=O)[C@H](CCCNC(=N)N)NC(=O)[C@@H]2CSSC[C@H](NC(=O)CNC(=O)[C@@H](N)CO)C(=O)N[C@@H](CSSC[C@@H](C(N)=O)NC1=O)C(=O)N[C@@H](C)C(=O)N[C@@H](CO)C(=O)N[C@@H](CC(N)=O)C(=O)N1CCC[C@H]1C(=O)N[C@@H](C)C(=O)N2 [gLsIA [∇A5]] (H-SGCCASNPACRVNNPNIC-NH2; disulfide 3-10, 4-18) | 48 ± 13.2 µM | –
CC(C)[C@H](NC(=O)[C@@H]1CSSC[C@@H]2NC(=O)[C@@H](NC(=O)[C@@H](N)CO)CSSC[C@H](NC(=O)[C@H](C)NC(=O)[C@@H]3CCCN3C(=O)[C@H](CC(N)=O)NC(=O)[C@H](CCCNC(=N)N)NC(=O)[C@H](CO)NC2=O)C(=O)N[C@@H](CCCNC(=N)N)C(=O)N[C@@H](Cc2c[nH]cn2)C(=O)N[C@@H](CC(N)=O)C(=O)N[C@@H](Cc2c[nH]cn2)C(=O)N2CCC[C@H]2C(=O)N1)C(N)=O [gAusIA [A4S]] (H-SCCSRNPACRHNHPCV-NH2; disulfide 2-9, 3-15) | 70 ± 12.9 µM | –
C[C@@H]1NC(=O)[C@@H]2CSSC[C@@H](C(N)=O)NC(=O)[C@@H]3CCCN3C(=O)[C@H](Cc3c[nH]cn3)NC(=O)[C@H](CC(N)=O)NC(=O)[C@H](Cc3c[nH]cn3)NC(=O)[C@H](CCCNC(=N)N)NC(=O)[C@H](CSSC[C@H](NC(=O)[C@@H](N)CO)C(=O)N2)NC(=O)[C@H](C)NC(=O)[C@@H]2CCCN2C(=O)[C@H](CC(N)=O)NC1=O [gAusIA [∆5 ∆16]] (H-SCCANPACRHNHPC-NH2; disulfide 2-8, 3-14) | 0.241 ± 0.062 µM | –
C[C@@H]1NC(=O)[C@@H]2CSSC[C@@H](C(N)=O)NC(=O)[C@@H]3CCCN3C(=O)[C@H](Cc3c[nH]cn3)NC(=O)[C@H](CC(N)=O)NC(=O)[C@H](Cc3c[nH]cn3)NC(=O)[C@H](CCCNC(=N)N)NC(=O)[C@H](CSSC[C@H](NC(=O)[C@@H](N)CO)C(=O)N2)NC(=O)[C@H](C)NC(=O)[C@@H]2CCCN2C(=O)[C@H](CC(N)=O)NC(=O)[C@H](CCCNC(=N)N)NC1=O [gAusIA [∆16]] (H-SCCARNPACRHNHPC-NH2; disulfide 2-9, 3-15) | 12 ± 2.3 µM | –
CC[C@H](C)[C@@H]1NC(=O)[C@H](CC(N)=O)NC(=O)[C@@H]2CCCN2C(=O)[C@H](CC(N)=O)NC(=O)[C@H](CC(N)=O)NC(=O)[C@H](C(C)C)NC(=O)[C@H](CCCNC(=N)N)NC(=O)[C@@H]2CSSC[C@H](NC(=O)[C@@H](NC(=O)CNC(=O)[C@@H](N)CO)CSSC[C@@H](C(N)=O)NC1=O)C(=O)N[C@@H](CO)C(=O)N[C@@H](CCCNC(=N)N)C(=O)N[C@@H](CC(N)=O)C(=O)N1CCC[C@H]1C(=O)N[C@@H](C)C(=O)N2 [rLsIA [∇R6]] (H-SGCCSRNPACRVNNPNIC-NH2; disulfide 3-18, 4-10) | 66 ± 4.1 µM | –
CC(C)[C@H](NC(=O)[C@@H]1CSSC[C@@H]2NC(=O)[C@@H](NC(=O)[C@@H](N)CO)CSSC[C@H](NC(=O)[C@H](C)NC(=O)[C@@H]3CCCN3C(=O)[C@H](CC(N)=O)NC(=O)[C@H](C)NC2=O)C(=O)N[C@@H](CCCNC(=N)N)C(=O)N[C@@H](Cc2c[nH]cn2)C(=O)N[C@@H](CC(N)=O)C(=O)N[C@@H](Cc2c[nH]cn2)C(=O)N2CCC[C@H]2C(=O)N1)C(N)=O [gAusIA [∆5]] (H-SCCANPACRHNHPCV-NH2; disulfide 2-8, 3-14) | 0.59 ± 0.08 µM | –
CC(C)[C@H](NC(=O)[C@@H]1CSSC[C@@H]2NC(=O)[C@@H](NC(=O)CN)CSSC[C@H](NC(=O)[C@H](C)NC(=O)[C@@H]3CCCN3C(=O)[C@H](CC(N)=O)NC(=O)[C@H](CCCNC(=N)N)NC(=O)[C@H](C)NC2=O)C(=O)N[C@@H](CCCNC(=N)N)C(=O)N[C@@H](Cc2c[nH]cn2)C(=O)N[C@@H](CC(N)=O)C(=O)N[C@@H](Cc2c[nH]cn2)C(=O)N2CCC[C@H]2C(=O)N1)C(N)=O [gAusIA [S1G]] (H-GCCARNPACRHNHPCV-NH2; disulfide 2-9, 3-15) | – | Ratio (IC50 ratio between gAusIA/rAusIA and its corresponding analogues): 0.70; antagonistic activity / potency at α7-containing nAChRs in words: comparable potency to gAusIA
CC(C)[C@H](NC(=O)[C@@H]1CSSC[C@@H]2NC(=O)[C@@H](NC(=O)[C@@H](N)CO)CSSC[C@H](NC(=O)[C@H](C)NC(=O)[C@@H]3CCCN3C(=O)[C@H](CC(N)=O)NC(=O)[C@H](CO)NC2=O)C(=O)N[C@@H](CCCNC(=N)N)C(=O)N[C@@H](Cc2c[nH]cn2)C(=O)N[C@@H](CC(N)=O)C(=O)N[C@@H](Cc2c[nH]cn2)C(=O)N2CCC[C@H]2C(=O)N1)C(N)=O [gAusIA [A4S ∆5]] (H-SCCSNPACRHNHPCV-NH2; disulfide 2-8, 3-14) | 0.428 ± 0.112 µM | –
CC(C)[C@H](NC(=O)[C@@H]1CSSC[C@H](NC(=O)[C@@H](N)CO)C(=O)N[C@H]2CSSC[C@H](NC(=O)[C@H](C)NC(=O)[C@@H]3CCCN3C(=O)[C@H](CC(N)=O)NC(=O)[C@H](C)NC2=O)C(=O)N[C@@H](CCCNC(=N)N)C(=O)N[C@@H](Cc2c[nH]cn2)C(=O)N[C@@H](CC(N)=O)C(=O)N[C@@H](Cc2c[nH]cn2)C(=O)N2CCC[C@H]2C(=O)N1)C(N)=O [rAusIA [∆5]] (H-SCCANPACRHNHPCV-NH2; disulfide 2-14, 3-8) | 51 ± 11.6 µM | –
CC(C)C[C@@H]1NC(=O)[C@H](CCCNC(=N)N)NC(=O)[C@@H]2CSSC[C@H](NC(=O)[C@@H](N)CO)C(=O)N[C@@H](CSSC[C@@H](C(=O)N[C@H](C(N)=O)C(C)C)NC(=O)[C@@H]3CCCN3C(=O)[C@H](Cc3c[nH]cn3)NC(=O)[C@H](CC(N)=O)NC1=O)C(=O)N[C@@H](C)C(=O)N[C@@H](CCCNC(=N)N)C(=O)N[C@@H](CC(N)=O)C(=O)N1CCC[C@H]1C(=O)N[C@@H](C)C(=O)N2 [gAusIA [H11L]] (H-SCCARNPACRLNHPCV-NH2; disulfide 2-9, 3-15) | – | IC50: > 100 µM; antagonistic activity / potency at α7-containing nAChRs in words: inactive
